Reference: patent publication US20040121994A1, “Novel amides that activate soluble guanylate cyclase” (priority 2002, published 2004)

Key:
[1] = target: T1, soluble guanylate cyclase (sGC), α1 and β1 subunits of guanylate cyclase expressed in Sf9 cells (Homo sapiens, UniProt Q02108+Q02153); test: Guanylate cyclase assay (formation of cyclic GMP from GTP); assay type: biochemical; settings: for Mean activation at 100 μM: (activity of compound at 100 μM with 1 μM SNP)−(activity of compound at 100 μM)/(activity of SNP at 1 μM)−(basal activity of sGC); for Mean efficacy of compound combined with 1 μM of SNP, [%]: compound at 100 μM with 1 μM sodium nitro prusside (SNP); for Mean efficacy of compound combined with 1 μM of SNP, [%] / Emax at 100 µM: normalized with the activity of 100 μM YC-1 (without SNP) as 100%; for Emax at 100 µM: compound at 100 μM without SNP, read-out: Mean basal efficacy of compound alone at 100 μM, [%]
T1 construct: made in house; host or cells: Sf9 insect cells (baculovirus co-infection)
T1 sequence (Q02108 1-690): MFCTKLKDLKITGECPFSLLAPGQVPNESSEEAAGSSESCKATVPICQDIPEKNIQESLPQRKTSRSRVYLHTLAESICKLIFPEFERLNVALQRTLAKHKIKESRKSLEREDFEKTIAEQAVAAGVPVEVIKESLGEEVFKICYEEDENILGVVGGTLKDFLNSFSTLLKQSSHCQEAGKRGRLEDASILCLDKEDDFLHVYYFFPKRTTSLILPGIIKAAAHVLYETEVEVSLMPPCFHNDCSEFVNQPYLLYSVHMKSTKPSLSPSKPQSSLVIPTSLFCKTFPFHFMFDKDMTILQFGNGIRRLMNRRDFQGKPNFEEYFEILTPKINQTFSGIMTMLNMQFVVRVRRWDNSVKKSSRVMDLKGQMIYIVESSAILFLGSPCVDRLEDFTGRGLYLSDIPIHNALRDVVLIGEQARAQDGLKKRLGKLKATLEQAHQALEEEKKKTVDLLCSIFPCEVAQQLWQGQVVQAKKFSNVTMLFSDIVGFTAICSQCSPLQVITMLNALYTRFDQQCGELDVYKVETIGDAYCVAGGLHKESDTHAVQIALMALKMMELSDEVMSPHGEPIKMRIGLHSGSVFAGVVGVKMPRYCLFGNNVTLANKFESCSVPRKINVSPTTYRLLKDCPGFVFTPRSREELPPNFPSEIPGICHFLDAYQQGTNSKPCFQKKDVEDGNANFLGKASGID
T1 sequence (Q02153 1-619): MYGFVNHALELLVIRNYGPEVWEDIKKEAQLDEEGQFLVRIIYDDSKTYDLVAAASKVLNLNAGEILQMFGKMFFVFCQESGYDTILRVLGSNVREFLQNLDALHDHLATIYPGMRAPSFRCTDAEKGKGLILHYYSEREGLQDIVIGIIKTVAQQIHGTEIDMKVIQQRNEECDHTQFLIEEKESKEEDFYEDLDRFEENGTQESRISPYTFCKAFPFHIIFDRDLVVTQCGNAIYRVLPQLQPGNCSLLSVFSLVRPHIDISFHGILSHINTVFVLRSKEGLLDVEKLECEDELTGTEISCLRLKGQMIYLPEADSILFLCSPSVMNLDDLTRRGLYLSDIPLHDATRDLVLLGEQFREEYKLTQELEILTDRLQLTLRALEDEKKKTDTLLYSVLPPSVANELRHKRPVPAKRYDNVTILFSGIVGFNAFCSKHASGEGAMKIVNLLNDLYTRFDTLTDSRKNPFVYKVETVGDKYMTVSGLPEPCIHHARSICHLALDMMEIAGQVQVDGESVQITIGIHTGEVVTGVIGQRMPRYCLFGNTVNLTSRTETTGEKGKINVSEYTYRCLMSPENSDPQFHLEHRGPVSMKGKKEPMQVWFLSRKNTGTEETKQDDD
In short: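 Sf9 high-speed supernatant with human sGC α1/β1 converted 1 mM GTP to cGMP over 15 min at 37 °C (50 mM Tris pH 7.6, 4 mM MgCl2, 0.5 mM IBMX); cGMP by enzyme immunoassay. Compounds at 100 μM, with or without 1 μM SNP; activity expressed relative to 100 μM YC-1 (no SNP) as 100%.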

| Structure (SMILES) | melting point | Mean activation at 100 μM [1] | Mean efficacy of compound combined with 1 μM of SNP, [%] [1] | Emax at 100 µM [1] |
| --- | --- | --- | --- | --- |
| COc1ccc(Sc2ccccc2/C=C/C(=O)NCCCCO)cc1 [Example 43, (2E)-N-(4-hydroxybutyl)-3-{2-[(4-methoxyphenyl)thio]phenyl}acrylamide] | 134 to 136 °C | 9.5 | 160% | 54% |
| O=C(/C=C/c1ccccc1Sc1ccc(Cl)cc1Cl)NCCCCO [Example 29, (2E)-3-{2-[(2,4-dichlorophenyl)thio]phenyl}-N-(4-hydroxybutyl)acrylamide] | 68 to 71 °C | 2.9 | 110% | 69% |
| O=C(/C=C/c1ccccc1Sc1ccc(Cl)cc1)NC1CCC(O)CC1 (stereo not drawn) [Example 30, (2E)-3-{2-[(4-chlorophenyl)thio]phenyl}-N-(4-hydroxycyclohexyl)acrylamide] | 86 to 88 °C | 3.4 | 289% | 66% |
| O=C(CCc1ccccc1Sc1ccc(Cl)cc1)NCCCCCO [Example 3, 3-{2-[(4-chlorophenyl)thio]phenyl}-N-(5-hydroxypentyl)propanamide] |  | 2.3 | 29% | 2% |
